In patent publication EP0394118B1, “2,6-Aminoheptanedioic acid unsaturated derivatives, process for their preparation and their use as medicaments” (ROUSSEL-UCLAF, priority 1989, dated 1990):

How the values were obtained:
Test in all cases: Antibacterial activity in vitro, agar diffusion method in Davis Mingioli medium
Format in all cases: cell-based
[1] = system: Salmonella typhimurium MZ11; conditions: Salmonella enterica, 100 mg/l aqueous solution in 9 mm wells, incubation 24 h at 37°C, read-out: zones d'inhibition (diamètre en mm)
Description: (§1) L'activité antibactérienne des produits revendiqués a été déterminée par la méthode de diffusion en milieu de Davis Mingioli additionné de 1% d'agar. Les géloses utilisées sont coulées en boîtes de Petri à 48°C, après ensemencement à […] au moyen de la souche bactérienne test. Les inocula proviennent d'une pré-culture de 24 heures en bouillon de Davis Mingioli. Après durcissement des géloses, les solutions aqueuses des produits étudiés sont introduites dans des puits (9 mm) creusés dans le milieu à l'aide d'un emporte-pièce. Les zones d'inhibition observées (diamètre en mm) sont mesurées après incubation de 24 heures à 37°C.

[2] = system: Enterobacter cloacae 1321E; conditions: 100 mg/l aqueous solution in 9 mm wells, incubation 24 h at 37°C, read-out: zones d'inhibition (diamètre en mm)
Description: as §1

[3] = system: Escherichia Coli 078; conditions: COLI078, 100 mg/l aqueous solution in 9 mm wells, incubation 24 h at 37°C, read-out: zones d'inhibition (diamètre en mm)
Description: as §1

[4] = system: Providencia sp. DU48; conditions: 100 mg/l aqueous solution in 9 mm wells, incubation 24 h at 37°C, read-out: zones d'inhibition (diamètre en mm)
Description: as §1

SMILES	zone of inhibition at 100 µg/mL [1]	zone of inhibition at 100 µg/mL [2]	zone of inhibition at 100 µg/mL [3]	zone of inhibition at 100 µg/mL [4]
C#CC(N)(CC(=C)CC(NCc1ccccc1)C(=O)O)C(=O)O (stereo not drawn) [exemple 10, Acide 2-amino 2-éthynyl 4-méthylène 6-[(phénylméthyl)amino] heptanedioïque]	19 mm			
C=C(CC(N)C(=O)O)CC(N)(CC)C(=O)O (stereo not drawn) [exemple 7, Acide 2,6-diamino 2-éthyl 4-méthylène heptanedioïque]	34 mm	29 mm	18 mm	28 mm
C=CC(N)(CC(=C)CC(N)C(=O)O)C(=O)O (stereo not drawn) [exemple 4, Acide 2,6-diamino 2-éthényl 4-méthylène heptanedioïque]	31 mm	26 mm	17.5 mm	29 mm
